The text below walks through data of BindingDB's records for doi:10.1021/acs.jmedchem.8b01300 (Emory University School of Medicine, 2019).

Assay [1] addresses RNA-directed RNA polymerase (Hepacivirus hominis, UniProt Q8JXU8). Put plainly: Inhibition of NS5B polymerase in wild type HCV genotype 1b infected in human Huh7 replicon cells after 5 days by RT-PCR assay. (In general: Replicon systems follow genome replication, usually without infectious particles.)
Assay [2] is described as follows: Inhibition of NS5B polymerase in wild type HCV genotype 1b infected in human Huh7 replicon cells after 5 days by RT-PCR assay.

Molecules are shown by their SMILES.

Usually EC50 stands for the concentration at which the effect is half-maximal. A higher EC50 goes with weaker potency. For the compound `C[C@@]1(O)[C@H](O)[C@@H](CO)O[C@H]1n1ccc(N)nc1=O`, the EC50 in assay [1] was 2.8 µM. As to `CC(C)OC(=O)[C@H](C)NP(=O)(OC[C@H]1O[C@@H](n2ccc(N)nc2=O)[C@](F)(Br)[C@H]1O)Oc1ccccc1` (stereo not given in full), in assay [1], the EC50 came to 0.6 µM. On to `Nc1nc2c(ncn2[C@@H]2O[C@H](CO)[C@@H](O)[C@]2(F)Br)c(=O)[nH]1`, for which, in assay [2], the 50% effective concentration (EC50) was greater than 10 µM. In the case of `Nc1ccn([C@@H]2O[C@H](CO)[C@@H](O)[C@]2(F)Br)c(=O)n1`, in assay [1], the concentration giving a half-maximal response (EC50) turned out to be 4 µM. Consider `Nc1ncnc2c1ncn2[C@@H]1O[C@H](CO)[C@H](O)[C@@]1(F)Br`, for which the half-maximal effective concentration (EC50) in assay [1] is greater than 10 µM.
